From ChEMBL document CHEMBL5729404, “Heterocyclic RIP1 kinase inhibitors” (2022)
pIC50: −log10 of the molar value.

molecular target: T1, Receptor-interacting serine/threonine-protein kinase 1 (Homo sapiens, UniProt Q13546); experiment: Adding 5 μl of ADP-Glo™ terminated the reaction.
T1 sequence (Q13546 whole entry): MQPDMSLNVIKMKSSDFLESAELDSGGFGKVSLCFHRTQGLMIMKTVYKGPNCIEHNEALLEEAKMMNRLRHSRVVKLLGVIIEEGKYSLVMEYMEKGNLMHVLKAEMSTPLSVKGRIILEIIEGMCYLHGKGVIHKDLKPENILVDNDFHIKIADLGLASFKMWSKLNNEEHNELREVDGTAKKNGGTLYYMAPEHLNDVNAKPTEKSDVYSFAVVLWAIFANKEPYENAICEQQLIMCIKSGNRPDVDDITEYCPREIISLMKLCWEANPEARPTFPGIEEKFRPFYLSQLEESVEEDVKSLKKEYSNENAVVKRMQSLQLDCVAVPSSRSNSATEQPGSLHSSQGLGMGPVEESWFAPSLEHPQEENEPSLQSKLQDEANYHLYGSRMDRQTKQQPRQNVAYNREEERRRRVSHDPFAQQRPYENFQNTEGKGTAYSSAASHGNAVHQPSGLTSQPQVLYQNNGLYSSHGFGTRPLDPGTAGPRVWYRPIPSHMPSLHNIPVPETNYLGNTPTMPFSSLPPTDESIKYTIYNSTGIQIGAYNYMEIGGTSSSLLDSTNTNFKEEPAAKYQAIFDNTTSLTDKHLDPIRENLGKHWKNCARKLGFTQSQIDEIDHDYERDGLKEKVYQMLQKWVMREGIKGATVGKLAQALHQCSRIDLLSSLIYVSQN

Row | Compound | pIC50
1 | CN1C(=O)[C@@H](NC(=O)n2cc(Cc3cccc(C(F)(F)F)n3)cn2)COc2ccc(Br)cc21 | 6.77
2 | CN1C(=O)[C@@H](NC(=O)n2cc(Cc3ccccn3)cn2)COc2ccc(Br)cc21 | 7.19
3 | CN1C(=O)[C@@H](NC(=O)n2cc(Cc3cccnc3)cn2)COc2ccc(Br)cc21 | 8.08
4 | Cc1cccc(Cc2cnn(C(=O)N[C@H]3COc4ccc(Br)cc4N(C)C3=O)c2)n1 | 6.98
5 | CN1C(=O)[C@@H](NC(=O)n2cc(Cc3ccc(F)nc3)cn2)COc2ccc(Br)cc21 | 7.39
6 | CN1C(=O)[C@@H](NC(=O)n2cc(Cc3cccnn3)cn2)COc2ccc(Br)cc21 | 6.08
7 | CN1C(=O)[C@@H](NC(=O)n2cc(Cc3cccc(F)n3)cn2)COc2ccc(Br)cc21 | 7.66
8 | CN1C(=O)[C@@H](NC(=O)n2cc(Cc3ccncc3)cn2)COc2ccc(Br)cc21 | 6.99
